From patent US20140072999A1, “METHODS OF SIMULATING CHEMOTHERAPY FOR A PATIENT” (Precision Therapeutics, Inc., priority 2008, published 2014) come the findings set out here.

In assay [1] the test system is FIGO stage III-IV ovarian, fallopian and peritoneal cancer. In words: observational study: progression-free survival by in vitro response, patients treated with carboplatin + paclitaxel after cytoreductive surgery. Type of assay: in vivo, human. The note with it: patients treated with C+P; for hazard ratio of disease progression, in vitro resistant vs S+I: univariate. From the text:
Women with FIGO stage III-IV ovarian, fallopian and peritoneal cancer were enrolled in an observational study and received in vitro chemoresponse testing between 2006 and 2010. Two hundred seventy-six (276) patients treated with carboplatin (C)+paclitaxel (P) following cytoreductive surgery were included in this analysis. Tumor response to C or P was classified into one of three categories according to assay response score: sensitive (S), intermediately sensitive (I), and resistant (R). Patient clinical information and progression-free survival (PFS) were retrospectively collected. Association of assay drug response with […] was analyzed using Kaplan-Meier procedure and Cox regression model.

Assay [2] concerns tumor cells cultured from primary ovarian cancer specimens. Put plainly: in vitro chemoresponse assay (ChemoFx), AUC7 drug response score. Type of assay: cell-based, human. The note with it: for share of tumors exhibiting in vitro resistance: AUC7 score >75th rank, patients of the observational study; for AUC (first seven doses) of the 25% of historical dose response curves with the highest scores (resistant cut-off) / AUC (first 7 doses) of the 25% of historical dose response curves with the lowest scores (sensitive cut-off): sum of survival fractions over doses 1-7, more than 2,000 specimens; for AUC (first 7 doses) of the 25% of historical dose response curves with the lowest scores (sensitive cut-off): smaller score = more sensitive. The method, then:
Briefly, in certain embodiments, cohesive multicellular particulates (explants) are prepared from a patient's tissue sample (e.g., a biopsy sample or surgical specimen) using mechanical fragmentation. This mechanical fragmentation of the explant may take place in a medium substantially free of enzymes that are capable of digesting the explant. Some enzymatic digestion may take place in certain embodiments. Generally, the tissue sample is systematically minced using two sterile scalpels in a scissor-like motion, or mechanically equivalent manual or automated opposing incisor blades. This cross-cutting motion creates smooth cut edges on the resulting tissue multicellular particulates. The tumor particulates each measure from about 0.25 to about 1.5 mm^3, for example, about 1 mm^3.
After the tissue sample has been minced, the particles are plated in culture flasks. The number of explants plated per flask may vary, for example, between one and 25, such as from 5 to 20 explants per flask. For example, about 9 explants may be plated per T-25 flask, and 20 particulates may be plated per T-75 flask. For purposes of illustration, the explants may be evenly distributed across the bottom surface of the flask, followed by initial inversion for about 10-15 minutes. The flask may then be placed in a non-inverted position in a 37° C. CO2 incubator for about […], Flasks are checked regularly for growth and contamination. Over a period of a few weeks a cell monolayer will form. Further, it is believed (without any intention of being bound by the theory) that tumor cells grow out from the multicellular explant prior to stromal cells. Thus, by initially maintaining the tissue cells within the explant and removing the explant at a predetermined time (e.g., at about 10 to about 50 percent confluency, or at about 15 to about 25 percent confluency), growth of the tumor cells (as opposed to stromal cells) into a monolayer is facilitated. In certain embodiments, the tumor explant may be agitated to substantially release tumor cells from the tumor explant, and the released cells cultured to produce a cell culture monolayer. The use of this procedure to form a cell culture monolayer helps maximize the growth of representative tumor cells from the tissue sample.
A panel of active agents may then be screened using the cultured cells. Generally, the agents are tested against the cultured cells using plates such as microtiter plates. For the chemosensitivity assay, a reproducible number of cells is delivered to a plurality of wells on one or more plates, preferably with an even distribution of cells throughout the wells. For example, cell suspensions are generally formed from the monolayer cells before substantial phenotypic drift of the tumor cell population occurs. The cell suspensions may be, without limitation, about 4,000 to 12,000 cells/ml, or may be about 4,000 to 9,000 cells/ml, or about 7,000 to 9,000 cells/ml. The individual wells for chemoresponse testing are inoculated with the cell suspension, with each well or “segregated site” containing about 10^2 to 10^4 cells. The cells are generally cultured in the segregated sites for about 4 to about 30 hours prior to contact with an agent.
The efficacy of each agent in the panel is determined against the patient's cultured cells, by determining the viability of the cells (e.g., number of viable cells). For example, at predetermined intervals before, simultaneously with, or beginning immediately after, contact with each agent or combination, an automated cell imaging system may take images of the cells using one or more of visible light, UV light and fluorescent light. Alternatively, the cells may be imaged after about 25 to about 200 hours of contact with each treatment. The cells may be imaged once or multiple times, prior to or during contact with each treatment. Of course, any method for determining the viability of the cells may be used to assess the efficacy of each treatment in vitro. […]

Where [3] appears, read: grouped by in vitro response to the named drug.

As to `N.N.O=C([O-])C1(C(=O)[O-])CCC1.[Pt+2]` [carboplatin, Carboplatin], the “hazard ratio of disease progression, in vitro resistant vs S+I, multivariate analysis” value in assay [1] (controlled for clinical covariates) was 1.71. Also, in assay [1] (setting [3]), the “median PFS, tumors intermediately sensitive (I) in vitro” value is 16.6 months; the “median PFS, tumors resistant (R) in vitro” value was found to be 11.8 months; the “median PFS, tumors sensitive (S) in vitro” value was found to be 17.4 months. In addition, the “hazard ratio of disease progression, in vitro resistant vs S+I” value in assay [1] is recorded as 1.87. Further, in assay [2], the “share of tumors exhibiting in vitro resistance” value was 19%, the “AUC (first seven doses) of the 25% of historical dose response curves with the highest scores (resistant cut-off)” value was ≥ 5.5 and the “AUC (first 7 doses) of the 25% of historical dose response curves with the lowest scores (sensitive cut-off)” value is ≤ 4.3.

Turning to `CC(=O)O[C@H]1C(=O)[C@@]2(C)[C@H]([C@H](OC(=O)c3ccccc3)[C@]3(O)C[C@H](OC(=O)[C@H](O)[C@@H](NC(=O)c4ccccc4)c4ccccc4)C(C)=C1C3(C)C)[C@]1(OC(C)=O)CO[C@@H]1C[C@@H]2O` [paclitaxel, Paclitaxel], the “hazard ratio of disease progression, in vitro resistant vs S+I” value in assay [1] amounted to 1.43. In assay [2], the “share of tumors exhibiting in vitro resistance” value is on record as 22%, the “AUC (first seven doses) of the 25% of historical dose response curves with the highest scores (resistant cut-off)” value is recorded as ≥ 6.0 and the “AUC (first 7 doses) of the 25% of historical dose response curves with the lowest scores (sensitive cut-off)” value is ≤ 5.0.
